Measurements: patent publication US20260265408A1, “GD2-SPECIFIC CHIMERIC ANTIGEN RECEPTOR EFFECTOR CELLS FOR USE IN THE TREATMENT OF SOLID TUMORS, POSSIBLY IN COMBINATION WITH ENHANCER OF ZESTE HOMOLOG 2 (EZH2) INHIBITORS” (priority 2023, published 2026)

System: CAR.GD2 T-cells
Experiment: In vivo activation of iC9 suicide gene by AP1903 in PDX-MB mouse model
Set-up: species or system NSG mice
Protocol: The in vivo activity of AP1903 on apoptosis induction of CAR. GD2 T-cells was assessed in in vivo PDX-MB mouse model. Briefly, 2×10^5 Med-411FH mCherry/Luciferase were orthotopic infused in 5-week-old female NSG mice. After tumor engraftment, confirmed by bioluminescence monitoring, mice received an intravenous injection (i.v.) of 10×10^6 of NT T or genetically modified CAR.GD2 T cells. Ten days later, when the presence of circulating T cells was confirmed by flow cytometric analysis, mice were randomly divided in four groups and treated or not treated by intraperitoneal (i.p.) infusion with AP1903 (100 mg/mouse) on day +11, day +12 and day +13 (NT-T no AP1903, NT-T AP1903+ or CAR. GD2-T no AP1903, CAR.GD2-T AP1903+). The residual of effector cells was evaluated 24 hours after the last AP1903 treatment by flow cytometric analysis in the peripheral blood or histologic and IHC analysis in brain/tumor tissue. Animals were sacrificed and brains were fixed in 4% formaldehyde in 0.1 mol/L phosphate buffer (pH 7.2) and paraffin embedded. AP1903 (cat. No. 6130, Biotechne-TOCRIS).
The histopathologic analysis was performed as previously reported^74. Briefly, after Haematoxylin/Eosin staining for IHC analysis, the sections were cut to 2.5 μm thick, dewaxed, and rehydrated. Epitope retrieval was performed by boiling the slides with EDTA (pH 9). Endogenous peroxidase was blocked with 3% hydrogen peroxide for 10 minutes followed by another blocking step in 5% serum albumin (BSA) for 1-hour RT. The sections were then incubated with anti-CD3 antibody (1:100, DAKO) or anti-Ki67 (1:100, Abcam) at 4° C. overnight. Secondary biotinylated antibody (K8024, Dako, Carpinteria, USA) and the peroxidase DAB kit (Dako, Carpinteria, USA) were used to reveal the primary antibodies. Slides were then counterstained with hematoxylin, dehydrated with a series of alcohol solutions (70%-100%), followed by three changes of Diasolv and mounted with Diamount (Diapath). Analysis was performed using standard microscopy.

CC[C@H](C(=O)N1CCCC[C@H]1C(=O)O[C@H](CCc1ccc(OC)c(OC)c1)c1cccc(OCC(=O)NCCNC(=O)COc2cccc([C@@H](CCc3ccc(OC)c(OC)c3)OC(=O)[C@@H]3CCCCN3C(=O)[C@@H](CC)c3cc(OC)c(OC)c(OC)c3)c2)c1)c1cc(OC)c(OC)c(OC)c1 [AP1903]
circulating CAR.GD2-T cells (AP1903 i.p. 100 mg/mouse on three consecutive days, compared to untreated): significant reduction
tumor-infiltrating CD3+ cells (anti-hCD3 IHC on cerebella slides) (AP1903 i.p. on three consecutive days): eliminate tumor-infiltrating CD3+ cells
crossing of the BBB (systemic (i.p.) administration): cross the BBB
